# Assay results published in US11479551B2, “MTA-cooperative PRMT5 inhibitors” (Mirati Therapeutics, Inc., priority 2019, dated 2022).
# Where two headings read alike, the source gives them in different places.
# What was measured:
# [1] = tested on: PRMT5-dependent Symmetric Di-methyl Arginine signal in HCT116 homozygous MTAP knockout cells; test: SYM11 In-Cell Western, HCT116 MTAP knockout; type: cell-based; conditions: HCT116 homozygous MTAP knockout cells, 4 days of treatment, SYM11/DRAQ5 ratio, read-out: In-cell-Western (SYM11) HCT116 MTAP_KO IC50
# [2] = tested on: HCT116 homozygous MTAP knockout cells; test: Proliferation assay (CellTiter-Glo, 10 days of treatment), HCT116 MTAP knockout; type: cell-based; conditions: read-out: Proliferation HCT116MTAP_KO IC50
# In short: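 Viability of the CRISPR/Cas9 homozygous MTAP-knockout HCT116 line was read by CellTiter-Glo after 10 days of PRMT5 inhibitor exposure, with IC50 derived from the dose response. Compound was given the day after seeding and renewed at an identical concentration when cells were split 1:10 on day 6.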
# HCT116 parental cells = test: Proliferation assay (CellTiter-Glo, 10 days of treatment), HCT116 parental; type: cell-based
# In short: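 250 cells seeded in McCoy's 5A with 10% FBS, then given a dose response of PRMT5 inhibitor at 37 °C, 5% CO2 for five days. Cells were split 1:10 on Day 6 into fresh medium with the same compound concentration for 5 more days. Viability read on Day 11 by CellTiter-Glo; IC50 after 10 days of treatment.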
# [3] = tested on: PRMT5-dependent Symmetric Di-methyl Arginine signal in HCT116 parental cells; test: SYM11 In-Cell Western, HCT116 parental; type: cell-based; conditions: 4 days of treatment, SYM11/DRAQ5 ratio
# In short: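 HCT116 parental cells (2,000/well, McCoy's 5A with 10% FBS) dosed with PRMT5 inhibitors for four days at 37° C. Fixed in paraformaldehyde and methanol, then stained with SYM11 antibody and DRAQ5.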
# PRMT5/MEP50 complex = PRMT5/MEP50 complex (Homo sapiens (Human), UniProt O14744); test: PRMT5:MEP50 HotSpot Assay (full-length histone H2A substrate, plus and minus MTA); type: biochemical
# Chain of PRMT5/MEP50 complex (O14744 2-637): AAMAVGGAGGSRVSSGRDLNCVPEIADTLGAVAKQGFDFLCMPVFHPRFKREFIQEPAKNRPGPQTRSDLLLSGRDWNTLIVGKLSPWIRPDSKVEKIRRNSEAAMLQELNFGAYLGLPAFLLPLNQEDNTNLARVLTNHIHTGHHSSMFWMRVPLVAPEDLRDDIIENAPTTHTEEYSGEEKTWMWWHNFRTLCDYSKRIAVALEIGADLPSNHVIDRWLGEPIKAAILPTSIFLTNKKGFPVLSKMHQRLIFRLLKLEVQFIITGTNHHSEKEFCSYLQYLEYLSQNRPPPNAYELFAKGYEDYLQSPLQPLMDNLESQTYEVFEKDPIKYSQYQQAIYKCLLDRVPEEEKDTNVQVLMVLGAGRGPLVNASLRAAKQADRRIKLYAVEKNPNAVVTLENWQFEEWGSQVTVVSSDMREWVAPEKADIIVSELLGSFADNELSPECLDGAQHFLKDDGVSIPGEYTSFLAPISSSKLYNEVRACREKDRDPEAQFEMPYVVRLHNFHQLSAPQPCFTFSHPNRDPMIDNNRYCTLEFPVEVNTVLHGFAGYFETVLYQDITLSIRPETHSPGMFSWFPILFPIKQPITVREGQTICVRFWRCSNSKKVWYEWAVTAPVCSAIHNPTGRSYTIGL
# Chain of PRMT5/MEP50 complex (Q9BQA1 2-342 partner): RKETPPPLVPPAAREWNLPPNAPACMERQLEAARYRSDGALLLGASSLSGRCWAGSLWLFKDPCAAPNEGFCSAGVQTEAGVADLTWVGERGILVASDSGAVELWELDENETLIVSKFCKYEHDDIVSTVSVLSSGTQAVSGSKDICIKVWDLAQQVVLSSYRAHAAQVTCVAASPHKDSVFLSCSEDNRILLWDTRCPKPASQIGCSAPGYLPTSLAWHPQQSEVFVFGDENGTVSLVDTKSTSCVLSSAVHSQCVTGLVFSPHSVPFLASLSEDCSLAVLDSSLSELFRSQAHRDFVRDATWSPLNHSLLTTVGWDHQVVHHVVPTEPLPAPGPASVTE
# In short: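 Tritium incorporated into recombinant full-length histone H2A was counted by scintillation after stopped reactions were captured on filter paper.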
# [4] = IC50 + 2 μM MTA, in the presence of 2 μM MTA
Structure (SMILES),"IC50 ([1]; Homo sapiens, HCT-116, 96 h)","IC50 ([2]; Homo sapiens, HCT-116, 240 h)","IC50 (HCT116 parental cells; Homo sapiens, HCT-116, 240 h)","IC50 ([3]; Homo sapiens, HCT-116, 96 h)",IC50 (PRMT5/MEP50 complex; [4]),IC50 [1],IC50 [2],IC50 (HCT116 parental cells),IC50 [3],"IC50 (PRMT5/MEP50 complex; read-out: IC50 + 2 μM MTA, in the presence of 2 μM MTA)","IC50 (PRMT5/MEP50 complex; in the absence of MTA, read-out: IC50)"
"Cn1ncc(-c2ccc3c(=O)[nH]nc(CN)c3c2)c1-c1cccc(OC2CCC2)c1 [Example 4-137, 4-(aminomethyl)-6-(5-(3-cyclobutoxyphenyl)-1-methyl-1H-pyrazol-4-yl)phthalazin-1(2H)-one]",88 nM,3240 nM,> 10 µM,5.18 µM,810 nM,–,–,–,–,–,–
"Cn1ncc(-c2ccc3c(=O)[nH]nc(CN)c3c2)c1-c1cc(Cl)cc(Cl)c1 [Example 4-141, 4-(aminomethyl)-6-(5-(3,5-dichlorophenyl)-1-methyl-1H-pyrazol-4-yl)phthalazin-1(2H)-one]",88 nM,2090 nM,5.5 µM,4.96 µM,794 nM,–,–,–,–,–,–
"CCc1cccc(-c2c(-c3cc(C)c4c(=O)[nH]nc(CN)c4c3)cnn2C)c1C#N [Example 10-7, 2-(4-(4-(aminomethyl)-8-methyl-1-oxo-1,2-dihydrophthalazin-6-yl)-1-methyl-1H-pyrazol-5-yl)-6-ethylbenzonitrile]",31 nM,103 nM,8.39 µM,> 1 µM,107 nM,–,–,–,–,–,–
"Cn1ncc(-c2ccc3c(=O)[nH]nc(CN)c3c2)c1-c1cc2ccccc2cc1C#N [Example 4-128, 3-(4-(4-(aminomethyl)-1-oxo-1,2-dihydrophthalazin-6-yl)-1-methyl-1H-pyrazol-5-yl)-2-naphthonitrile]",39 nM,427 nM,9.63 µM,4.02 µM,1310 nM,–,–,–,–,–,–
"Cn1ncc(-c2ccc3c(=O)[nH]nc(CN)c3c2)c1-c1c(F)cc2ccccc2c1C#N (single isomer, unassigned) [Example 16-2]",–,–,–,–,–,73 nM,224 nM,5.92 µM,> 1 µM,111 nM,–
"Cc1cc(-c2cnn(C)c2-c2ccc3ccccc3c2C#N)cc2c(CN)n[nH]c(=O)c12 [Example 10-11, 2-(4-(4-(aminomethyl)-8-methyl-1-oxo-1,2-dihydrophthalazin-6-yl)-1-methyl-1H-pyrazol-5-yl)-1-naphthonitrile]",5 nM,29 nM,0.763 µM,4.26 µM,34 nM,–,–,–,–,–,–
"COc1cnc2ccc(-c3c(-c4ccc5c(=O)[nH]nc(CN)c5c4)cnn3C)c(C#N)c2c1 [Example 4-197, 6-(4-(4-(aminomethyl)-1-oxo-1,2-dihydrophthalazin-6-yl)-1-methyl-1H-pyrazol-5-yl)-3-methoxyquinoline-5-carbonitrile]",25 nM,256 nM,8.57 µM,> 1 µM,719 nM,–,–,–,–,–,–
"COc1cc(C#N)c(-c2c(-c3ccc4c(=O)[nH]nc(CN)c4c3)cnn2C)cc1OC [Example 4-129, 2-(4-(4-(aminomethyl)-1-oxo-1,2-dihydrophthalazin-6-yl)-1-methyl-1H-pyrazol-5-yl)-4,5-dimethoxybenzonitrile]",380 nM,1350 nM,> 10 µM,> 10 µM,1650 nM,–,–,–,–,–,–
"Cn1ncc(-c2ccc3c(=O)[nH]nc(CN)c3c2)c1-c1ccc2ccccc2c1 [Example 4-139, 4-(aminomethyl)-6-(1-methyl-5-(naphthalen-2-yl)-1H-pyrazol-4-yl)phthalazin-1(2H)-one]",254 nM,1490 nM,5.07 µM,5.53 µM,1230 nM,–,–,–,–,–,–
"Cn1ncc(-c2ccc3c(=O)[nH]nc(CN)c3c2)c1-c1ccc2ncccc2c1C#N [Example 4-149, 6-(4-(4-(aminomethyl)-1-oxo-1,2-dihydrophthalazin-6-yl)-1-methyl-1H-pyrazol-5-yl)quinoline-5-carbonitrile]",135 nM,359 nM,> 10 µM,6.35 µM,282 nM,–,–,–,–,–,–
"CCc1cc(Cl)cc(-c2c(-c3ccc4c(=O)[nH]nc(CN)c4c3)cnn2C)c1C#N [Example 4-200, 2-(4-(4-(aminomethyl)-1-oxo-1,2-dihydrophthalazin-6-yl)-1-methyl-1H-pyrazol-5-yl)-4-chloro-6-ethylbenzonitrile]",32 nM,71 nM,4.3 µM,1.75 µM,156 nM,–,–,–,–,–,–
"CCc1cccc(-c2c(-c3cc(F)c4c(=O)[nH]nc(CN)c4c3)cnn2C)c1C#N [Example 10-8, 2-(4-(4-(aminomethyl)-8-fluoro-1-oxo-1,2-dihydrophthalazin-6-yl)-1-methyl-1H-pyrazol-5-yl)-6-ethylbenzonitrile]",27 nM,276 nM,> 10 µM,4.72 µM,660 nM,–,–,–,–,–,–
"Cn1ncc(-c2cc(Cl)c3c(=O)[nH]nc(CN)c3c2)c1-c1ccc2ccccc2c1C#N [Example 10-1, 2-(4-(4-(aminomethyl)-8-chloro-1-oxo-1,2-dihydrophthalazin-6-yl)-1-methyl-1H-pyrazol-5-yl)-1-naphthonitrile]",15 nM,36 nM,2.3 µM,1.12 µM,41.7 nM,–,–,–,–,–,–
"Cc1cc(C)c(C#N)c(-c2c(-c3ccc4c(=O)[nH]nc(CN)c4c3)cnn2C)c1 [Example 12-11, 2-(4-(4-(aminomethyl)-1-oxo-1,2-dihydrophthalazin-6-yl)-1-methyl-1H-pyrazol-5-yl)-4,6-dimethylbenzonitrile]",18 nM,125 nM,8.71 µM,1.23 µM,234 nM,–,–,–,–,–,–
"Cn1ncc(-c2ccc3c(=O)[nH]nc(CN)c3c2)c1-c1ccc2ccccc2c1C#N [Example 4-147, 2-(4-(4-(aminomethyl)-1-oxo-1,2-dihydrophthalazin-6-yl)-1-methyl-1H-pyrazol-5-yl)-1-naphthonitrile]",11 nM,50 nM,1.91 µM,1.26 µM,43 nM,–,–,–,–,–,280 nM
"Cn1ncc(-c2ccc3c(=O)[nH]nc(CN)c3c2)c1-c1ccc(Cl)c(Cl)c1C#N [Example 4-148, 6-(4-(4-(aminomethyl)-1-oxo-1,2-dihydrophthalazin-6-yl)-1-methyl-1H-pyrazol-5-yl)-2,3-dichlorobenzonitrile]",30 nM,307 nM,7.75 µM,8.55 µM,229 nM,–,–,–,–,–,–
"CCCc1cccc(-c2c(-c3ccc4c(=O)[nH]nc(CN)c4c3)cnn2C)c1C#N [Example 4-189, 2-(4-(4-(aminomethyl)-1-oxo-1,2-dihydrophthalazin-6-yl)-1-methyl-1H-pyrazol-5-yl)-6-propylbenzonitrile]",31 nM,234 nM,> 10 µM,1.83 µM,656 nM,–,–,–,–,–,–
"Cc1cc(C#N)c(-c2c(-c3ccc4c(=O)[nH]nc(CN)c4c3)cnn2C)cc1Cl [Example 4-127, 2-(4-(4-(aminomethyl)-1-oxo-1,2-dihydrophthalazin-6-yl)-1-methyl-1H-pyrazol-5-yl)-4-chloro-5-methylbenzonitrile]",25 nM,615 nM,> 10 µM,5.92 µM,2540 nM,–,–,–,–,–,–
"Cn1ncc(-c2ccc3c(=O)[nH]nc(CN)c3c2)c1-c1sc2ccccc2c1C#N [Example 4-242, 2-(4-(4-(aminomethyl)-1-oxo-1,2-dihydrophthalazin-6-yl)-1-methyl-1H-pyrazol-5-yl)benzo[b]thiophene-3-carbonitrile]",2 nM,44 nM,4.99 µM,> 1 µM,102 nM,–,–,–,–,–,–
